# Data reported in patent US20060222628A1, “Gallium complexes of 3-hydroxy-4-pyrones to treat infection by intracellular prokaryotes and DNA viruses” (priority 1999, published 2006).
# What was measured:
# [1] = system: hepatitis B; assay: Clinical evaluation in co-infection by HIV and hepatitis B: hepatitis B; format: in vivo, human
# Description: Gallium maltolate is evaluated clinically for efficacy in treating hepatitis B co-infection of a HIV-1 patients. In addition to the methods used in Example 5 for evaluating the HIV disease, the methods employed in the clinical studies discussed in the following references are used in the evaluation: Yao et al. (1997), “Treatment of Chronic Hepatitis B: New Antiviral Therapies,” Curr. Gastroenterol. Rep. 1(1):20-26; Hoofnagle et al. (1997), “New therapies for chronic hepatitis B,” supra.
# Patients are treated once per day with gelatin capsules containing gallium maltolate. The population of patients with hepatitis B and HIV infection are first divided into two subpopulations groups based on CD4+ counts (above 350/mm^3 and below 350/mm^3). […]
# In each subpopulation, the first group's four subgroups from each subpopulation (above 350/mm^3 and below 350/mm^3) additionally receive the gallium maltolate dose together with 10 million IU interferon by injection once per day. […] Patients are monitored for HIV disease precisely as described in Example 5. Patients are also medically monitored for liver disease, including liver function testing and examination for medical symptoms of hepatitis B infection throughout the study, with careful attention to the possibility that the drugs themselves may cause some liver disease and elevate the liver function tests. […]
# [2] = system: HIV; assay: Clinical evaluation for prevention of EBV or KSV neoplasms in HIV patients: HIV; format: in vivo; conditions: neoplasm prevention study; MacSynergy II
# From the text: Both EBV and KSV cause neoplasms, with both causing lymphomas and KSV ([…]) along with HHV-7, possibly in concert with HHV-6 associated with the pathogenesis of Kaposi Sarcoma. Most humans carry all these viruses. A HIV population could be studied without determining whether any of the patients are seropositive or culturable for these pathogens, or preferably a group of HIV patients who are seropositive or culture positive for both EBV and KSV can be identified. Applying the methods of Example 12 with additional guidance from Schneider et al. (2000), supra, yields a protocol for evaluating the contribution of the gallium compounds of the invention in prevention of opportunistic neoplasms caused by the herpes viruses with combination antiviral therapy.
# Using essentially the same protocol as Example 12, but with an HIV infected patient population that is seropositive or culture positive for both EBV and KSV and substituting the specific assays such as PCR, serodetection for the EBV and KSV viruses, the role of gallium as a combination agent in preventing the neoplasms caused by members of the herpesvirus family in HIV disease can be evaluated. The subpopulations are divided according to CD4 counts as in Example 12. Each subpopulation's first group is treated in addition to the foscarnet with interferon-alpha. […]
# [3] = system: Epstein-Barr Virus (EBV); assay: Clinical evaluation for Epstein-Barr virus (EBV) infection; format: in vivo, human
# Description: Some of the methods employed in the clinical studies discussed in the following references are used in the evaluation: Schneider et al. (2000), “Regression of Epstein-Barr virus-associated lymphoproliferative disorders in patients with acquired immunodeficiency syndrome during therapy with foscarnet,” Ann. Hematol. 79(4):214-6. Patients with EBV infection are treated once per day with gelatin capsules containing gallium maltolate. The patients are divided randomly and blindly into two approximately equal groups with four approximately equal subgroups that receive either 0 (placebo), 250, 500, or 750 mg/day gallium maltolate for about six months. The first group receive the gallium maltolate dose together with 500 mg ganciclovir twice per day. The second group receive the gallium maltolate dose together with 5500 mg foscarnet, IV infusion over 1.5-2 hr., twice per day. Patients are medically monitored for resolution of EBV infection, with histopathologic examination of hematologic smears to assess characteristic cells an lymphocyte levels. In addition blood serum samples are obtained from the patients at days 1, 3, 7, 10, 14, 17, 21, 24 and 28 and are assayed for EBV particles by routine methods and for EBV DNA (viral load assay) using PCR.
smiles,measurement,setting,value
"Cc1occc(=O)c1[O-].Cc1occc(=O)c1[O-].Cc1occc(=O)c1[O-].[Ga+3] [gallium maltolate, tris(3-hydroxy-2-methyl-4H-pyran-4-onato)gallium]",Efficacy in treating hepatitis B infection in combination,"[1]; HIV co-infected patients on HAART, with interferon-alpha or lamuvidine",effective in combination with interferon and interferon plus nucleoside analogs
same,Synergy in treating hepatitis B infection,[1]; with interferon and interferon plus nucleoside analogs,synergistic with both
same,Synergy with the HAART regime on HIV infection,[2],synergistic with the HAART regime in their effects upon the HIV infection
same,Efficacy of combination with ganciclovir or foscarnet versus single agents,[3]; EBV,more effective than either agent alone
same,Synergy with nucleoside analogs,"[3]; EBV, MacSynergy II",synergy of gallium with both nucleoside analogs is also demonstrated
same,Efficacy in treating EBV infection,"[3]; HIV negative patients, 250-750 mg/day oral with ganciclovir or foscarnet","effective for treating EBV infection, including recurrent sores as well as more serious systemic disease"
